Source: ChEMBL document CHEMBL1136394, “Synthesis and in vivo imaging properties of [11C]befloxatone: a novel highly potent positron emission tomography ligand for mono-amine oxidase-A” (Bioorg Med Chem Lett, 2003)

Assays:
[1] = test system: Mus musculus; assay: Intravenous effective dose against L-5-hydroxytryptophan induced generalized tremors in mice; type: functional
[2] = target: T1, Amine oxidase [flavin-containing] A (Homo sapiens, UniProt P21397); assay: Compound was tested for inhibition of MAOA in human brain, heart, liver and duodenum homogenates; Range is 1.9-3.6 nM; type: tissue-based
T1 sequence (P21397 whole entry): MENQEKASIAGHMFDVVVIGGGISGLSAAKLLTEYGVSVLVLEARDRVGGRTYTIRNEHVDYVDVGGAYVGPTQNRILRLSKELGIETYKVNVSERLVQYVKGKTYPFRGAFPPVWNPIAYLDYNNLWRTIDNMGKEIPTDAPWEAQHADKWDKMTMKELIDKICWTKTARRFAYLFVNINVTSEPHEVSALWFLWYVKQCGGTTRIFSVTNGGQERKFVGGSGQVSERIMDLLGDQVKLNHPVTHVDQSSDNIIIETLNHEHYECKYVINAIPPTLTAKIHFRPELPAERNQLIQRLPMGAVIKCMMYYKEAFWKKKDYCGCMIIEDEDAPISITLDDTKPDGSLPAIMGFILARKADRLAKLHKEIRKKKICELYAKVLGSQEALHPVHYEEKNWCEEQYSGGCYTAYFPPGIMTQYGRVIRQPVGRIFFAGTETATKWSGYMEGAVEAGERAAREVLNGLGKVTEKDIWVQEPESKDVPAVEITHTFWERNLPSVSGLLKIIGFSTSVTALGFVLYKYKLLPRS

[3] = target: T2, Amine oxidase [flavin-containing] A (Rattus norvegicus, UniProt P21396); assay: Compound was tested for inhibition of MAOA in rat brain, heart, liver and duodenum homogenates; Range is 1.9-3.6 nM; type: tissue-based
T2 sequence (P21396 whole entry): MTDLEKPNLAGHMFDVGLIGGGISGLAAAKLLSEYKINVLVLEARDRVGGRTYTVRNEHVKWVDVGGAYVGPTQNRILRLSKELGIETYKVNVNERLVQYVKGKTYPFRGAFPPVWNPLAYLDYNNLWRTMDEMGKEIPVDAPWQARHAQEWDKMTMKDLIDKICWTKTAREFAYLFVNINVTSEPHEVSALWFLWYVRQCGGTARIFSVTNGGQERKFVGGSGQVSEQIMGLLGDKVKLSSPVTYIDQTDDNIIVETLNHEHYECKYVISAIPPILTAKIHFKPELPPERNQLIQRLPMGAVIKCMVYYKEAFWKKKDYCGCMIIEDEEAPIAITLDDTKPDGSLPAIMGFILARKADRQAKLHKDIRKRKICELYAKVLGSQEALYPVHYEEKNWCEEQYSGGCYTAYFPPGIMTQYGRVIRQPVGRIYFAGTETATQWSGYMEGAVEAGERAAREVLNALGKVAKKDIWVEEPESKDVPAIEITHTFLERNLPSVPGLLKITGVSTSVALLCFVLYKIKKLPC

[4] = species on record: Mus musculus; assay: Oral effective dose against phenylethylamine-induced stereotypy in mice; type: functional
[5] = test system: Mus musculus; assay: Oral effective dose against L-5-hydroxytryptophan induced generalized tremors in mice; Range is 0.1-0.2 mg/Kg; type: functional
[6] = Half life was determined; type: ADME; settings: rat

## COC[C@H]1CN(c2ccc(OCC[C@@H](O)C(F)(F)F)cc2)C(=O)O1 [BEFLOXATONE]
[1]
  ED50: 0.07 mg/kg
[2]
  Ri: 1.9 nM
[3]
  Ri: 1.9 nM
[4]
  ED50: 58 mg/kg
[5]
  ED50: 0.2 mg/kg
[6]
  half-life: 20.4 min
